According to PubChem BioAssay AID1963839 (Molecular Pharmacology Branch, DTP, NCI, 2024):

Tested on: 817829-284-R-J1-PDC complex spheroid viability
Assay: Anticancer human tumor 817829-284-R-J1-PDC patient-derived colon adenocarcinoma cell line growth inhibition [POLQ]
Conditions: for IC50: curve of first compound; for viability, T/C: stronger effect = lower value; active = viability on the fitted dose curve at most 10% of control; inactive = the rest
In short: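 Complex spheroid viability model combining PDC tumour cells with endothelial (HUVEC) and MSC stromal cells. Novobiocin, ART-558 or RP6685 were tested singly and in combination with standard and investigational anticancer drugs. Each was titrated in half-log steps from near clinical Cmax, or from 10 microM where Cmax was unknown.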

[1] = second compound 0.0316 µM, first compound 0.00316 µM
[2] = second compound 0.0316 µM, first compound 0.01 µM
[3] = second compound 0.0316 µM, first compound 0.0316 µM
[4] = second compound 0.0316 µM, first compound 0.1 µM
[5] = second compound 0.0316 µM, first compound 0.316 µM
[6] = second compound 0.0316 µM, first compound 1 µM
[7] = second compound 0.1 µM, first compound 0.00316 µM
[8] = second compound 0.1 µM, first compound 0.01 µM
[9] = second compound 0.1 µM, first compound 0.0316 µM
[10] = second compound 0.1 µM, first compound 0.1 µM
[11] = second compound 0.1 µM, first compound 0.316 µM
[12] = second compound 0.1 µM, first compound 1 µM
[13] = second compound 0.316 µM, first compound 0.00316 µM
[14] = second compound 0.316 µM, first compound 0.01 µM
[15] = second compound 0.316 µM, first compound 0.0316 µM
[16] = second compound 0.316 µM, first compound 0.1 µM
[17] = second compound 0.316 µM, first compound 0.316 µM
[18] = second compound 0.316 µM, first compound 1 µM
[19] = second compound 1 µM, first compound 0.00316 µM
[20] = second compound 1 µM, first compound 0.01 µM
[21] = second compound 1 µM, first compound 0.0316 µM
[22] = second compound 1 µM, first compound 0.1 µM
[23] = second compound 1 µM, first compound 0.316 µM
[24] = second compound 1 µM, first compound 1 µM
[25] = second compound 3.16 µM, first compound 0.00316 µM
[26] = second compound 3.16 µM, first compound 0.01 µM
[27] = second compound 3.16 µM, first compound 0.0316 µM
[28] = second compound 3.16 µM, first compound 0.1 µM
[29] = second compound 3.16 µM, first compound 0.316 µM
[30] = second compound 3.16 µM, first compound 1 µM
[31] = second compound 10 µM, first compound 0.00316 µM
[32] = second compound 10 µM, first compound 0.01 µM
[33] = second compound 10 µM, first compound 0.0316 µM
[34] = second compound 10 µM, first compound 0.1 µM
[35] = second compound 10 µM, first compound 0.316 µM
[36] = second compound 10 µM, first compound 1 µM
[37] = second compound 0.0316 µM, first compound 3.16 µM
[38] = second compound 0.0316 µM, first compound 10 µM
[39] = second compound 0.1 µM, first compound 3.16 µM
[40] = second compound 0.1 µM, first compound 10 µM
[41] = second compound 0.316 µM, first compound 3.16 µM
[42] = second compound 0.316 µM, first compound 10 µM
[43] = second compound 1 µM, first compound 3.16 µM
[44] = second compound 1 µM, first compound 10 µM
[45] = second compound 3.16 µM, first compound 3.16 µM
[46] = second compound 3.16 µM, first compound 10 µM
[47] = second compound 10 µM, first compound 3.16 µM
[48] = second compound 10 µM, first compound 10 µM
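Note: spheroids exposed to compounds for 7 days.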
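Throughout, for viability, T/C: 100% = DMSO vehicle-treated spheroids.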

C=CCn1c(=O)c2cnc(Nc3ccc(N4CCN(C)CC4)cc3)nc2n1-c1cccc(C(C)(C)O)n1 + Cc1cccc(N(C)C(=O)C2C(O)CCN2c2nc(C)cc(C(F)(F)F)c2C#N)c1
0.258 µM: IC50 (second compound 3.16 µM)
0.236 µM: IC50 (second compound 1 µM)
inactive: viability, T/C [1] 90.2% | viability, T/C [2] 91.5% | viability, T/C [3] 102% | viability, T/C [4] 53.4% | viability, T/C [5] 34.8% | viability, T/C [7] 91.6% | viability, T/C [8] 92.9% | viability, T/C [9] 89.3% | viability, T/C [10] 71.1% | viability, T/C [11] 39.9% | viability, T/C [13] 98.3% | viability, T/C [14] 107% | viability, T/C [15] 93.8% | viability, T/C [16] 84.9% | viability, T/C [17] 42.6% | viability, T/C [19] 111% | viability, T/C [20] 98.2% | viability, T/C [21] 101% | viability, T/C [22] 82.4% | viability, T/C [23] 38.7% | viability, T/C [25] 104% | viability, T/C [26] 102% | viability, T/C [27] 99.6% | viability, T/C [28] 74.9% | viability, T/C [29] 45.3% | viability, T/C [31] 118% | viability, T/C [32] 88.9% | viability, T/C [33] 86.2% | viability, T/C [34] 79.4% | viability, T/C [35] 39.5%
0.233 µM: IC50 (second compound 10 µM)
active: viability, T/C [6] 5.25% | viability, T/C [12] 5.58% | viability, T/C [18] 7.22% | viability, T/C [24] 6.42% | viability, T/C [30] 6.52% | viability, T/C [36] 5.63%
0.155 µM: IC50 (second compound 0.0316 µM)
0.218 µM: IC50 (second compound 0.1 µM)
0.259 µM: IC50 (second compound 0.316 µM)

CCCS(=O)(=O)Nc1ccc(F)c(C(=O)c2c[nH]c3ncc(-c4ccc(Cl)cc4)cc23)c1F + Cc1cccc(N(C)C(=O)C2C(O)CCN2c2nc(C)cc(C(F)(F)F)c2C#N)c1
inactive: viability, T/C [3] 82.6% | viability, T/C [4] 75.3% | viability, T/C [5] 81.4% | viability, T/C [6] 84.3% | viability, T/C [37] 48.3% | viability, T/C [9] 86.5% | viability, T/C [10] 83.7% | viability, T/C [11] 81.9% | viability, T/C [12] 80.8% | viability, T/C [39] 68.1% | viability, T/C [15] 94.9% | viability, T/C [16] 89.6% | viability, T/C [17] 76.4% | viability, T/C [18] 81.8% | viability, T/C [41] 63.8% | viability, T/C [21] 103% | viability, T/C [22] 91.9% | viability, T/C [23] 90.8% | viability, T/C [24] 80.5% | viability, T/C [43] 58.2% | viability, T/C [27] 104% | viability, T/C [28] 97% | viability, T/C [29] 83.3% | viability, T/C [30] 74.3% | viability, T/C [45] 66.5% | viability, T/C [46] 8.21% | viability, T/C [33] 85.7% | viability, T/C [34] 76.5% | viability, T/C [35] 66.5% | viability, T/C [36] 64.2% | viability, T/C [47] 49.5%
4.07 µM: IC50 (second compound 0.316 µM)
active: viability, T/C [38] 6.4% | viability, T/C [40] 8.39% | viability, T/C [42] 6.86% | viability, T/C [44] 6.61% | viability, T/C [48] 4.19%
2.39 µM: IC50 (second compound 10 µM)
4.45 µM: IC50 (second compound 0.1 µM)
3.71 µM: IC50 (second compound 1 µM)
3.81 µM: IC50 (second compound 3.16 µM)
2.98 µM: IC50 (second compound 0.0316 µM)

CNCc1ccc(-c2[nH]c3cc(F)cc4c3c2CCNC4=O)cc1 + Cc1cccc(N(C)C(=O)C2C(O)CCN2c2nc(C)cc(C(F)(F)F)c2C#N)c1
2.69 µM: IC50 (second compound 1 µM)
3.41 µM: IC50 (second compound 0.316 µM)
2.24 µM: IC50 (second compound 0.0316 µM)
3.32 µM: IC50 (second compound 3.16 µM)
3.84 µM: IC50 (second compound 10 µM)
inactive: viability, T/C [3] 87.5% | viability, T/C [4] 67.2% | viability, T/C [5] 68.4% | viability, T/C [6] 58.2% | viability, T/C [37] 49.9% | viability, T/C [38] 33.9% | viability, T/C [9] 74.9% | viability, T/C [10] 67.8% | viability, T/C [11] 86.7% | viability, T/C [12] 60.4% | viability, T/C [39] 74.7% | viability, T/C [40] 43% | viability, T/C [15] 97.8% | viability, T/C [16] 76.5% | viability, T/C [17] 70.5% | viability, T/C [18] 66.6% | viability, T/C [41] 53.7% | viability, T/C [42] 36.3% | viability, T/C [21] 104% | viability, T/C [22] 71.9% | viability, T/C [23] 86.4% | viability, T/C [24] 55.9% | viability, T/C [43] 51.8% | viability, T/C [44] 33.1% | viability, T/C [27] 82.4% | viability, T/C [28] 54.2% | viability, T/C [29] 79.1% | viability, T/C [30] 77.9% | viability, T/C [45] 50.9% | viability, T/C [46] 30.3% | viability, T/C [33] 70.9% | viability, T/C [34] 78.1% | viability, T/C [35] 67.1% | viability, T/C [36] 62.5% | viability, T/C [47] 55.6% | viability, T/C [48] 31.4%
7.64 µM: IC50 (second compound 0.1 µM)

COc1cccc(OCCCN)c1-c1cc(Nc2cnc(C#N)cn2)n[nH]1 + Cc1cccc(N(C)C(=O)C2C(O)CCN2c2nc(C)cc(C(F)(F)F)c2C#N)c1
0.00522 µM: IC50 (second compound 10 µM)
0.00563 µM: IC50 (second compound 0.1 µM)
0.0048 µM: IC50 (second compound 0.0316 µM)
active: viability, T/C [3] 5.94% | viability, T/C [4] 4.36% | viability, T/C [5] 4.2% | viability, T/C [6] 2.81% | viability, T/C [9] 5.69% | viability, T/C [10] 4.81% | viability, T/C [11] 4.14% | viability, T/C [12] 2.6% | viability, T/C [15] 4.73% | viability, T/C [16] 4.19% | viability, T/C [17] 4.39% | viability, T/C [18] 3.1% | viability, T/C [21] 5.38% | viability, T/C [22] 4.93% | viability, T/C [23] 3.71% | viability, T/C [24] 3.25% | viability, T/C [27] 5.86% | viability, T/C [28] 5.17% | viability, T/C [29] 4.05% | viability, T/C [30] 2.85% | viability, T/C [33] 5.87% | viability, T/C [34] 4.92% | viability, T/C [35] 4.34% | viability, T/C [36] 3.21%
0.00483 µM: IC50 (second compound 3.16 µM)
inactive: viability, T/C [1] 70.3% | viability, T/C [2] 14.5% | viability, T/C [7] 86.8% | viability, T/C [8] 13.4% | viability, T/C [13] 84.9% | viability, T/C [14] 16.4% | viability, T/C [19] 78% | viability, T/C [20] 15.3% | viability, T/C [25] 69.9% | viability, T/C [26] 16% | viability, T/C [31] 76.6% | viability, T/C [32] 15.7%
0.00568 µM: IC50 (second compound 0.316 µM)
0.00528 µM: IC50 (second compound 1 µM)
